Assay results: patent US6635250B2, “Use of certain metalloproteinase inhibitors for treating nerve disorders mediated by nucleus pulpsus” (A+ Science AB (publ), priority 1998, dated 2003)

Columns and labels:
nerve roots = settings: cited from earlier work
[1] = test system: sacrococcygeal cauda equina; experiment: Series-3: nerve root conduction velocity seven days after autologous nucleus pulposus application; type: in vivo; settings: pig, systemic treatment
Protocol: Series-3: Thirteen pigs had autologous nucleus pulposus placed onto their sacrococcygeal cauda equina similar to series-2. Five pigs (bodyweight 25 kg) received REMICADE® (infliximab) 100 mg i.v. preoperatively, and 8 pigs received ENBREL® (etanercept) 12.5 mg s.c. preoperatively and additionally 12.5 mg s.c. three days after the operation. Seven days after the nucleus pulposus-application the nerve root conduction velocity was determined over the application zone by local electrical stimulation according to series-2. Series-3: Thirteen pigs had autologous nucleus pulposus placed onto their sacrococcygeal cauda equina similar to series-2. […] Seven days after the nucleus pulposus-application the nerve root conduction velocity was determined over the application zone by local electrical stimulation according to series-2. […] The statistical difference between the groups, infliximab, and etanercept, nucleus pulposus without treatment (positive control from previous data) and application of retroperitoneal fat (negative control from previous data) was assessed by using ANOVA and Fisher's PLSD at 5%.

[2] = test system: inducible nitrogen oxide synthetase; settings: cited from earlier work

Molecule | block of nucleus pulposus-related effects (nerve roots) | block of nucleus pulposus induced nerve injury (nerve conduction velocity) [1] | further results
COc1ccc2c(c1)c(CC(=O)O)c(C)n2C(=O)c1ccc(Cl)cc1 [indomethacin] | slightly less efficiently | – | –
infliximab [REMICADE ®] | – | blocked the nucleus pulposus induced nerve injury efficiently | –
N=C(N)NN [Aminoguanidine] | – | – | inhibition of release of nitrogen oxide (NO) at nerve root injuries [2]: inhibit the release of nitrogen oxide (NO)
CCN(CC)CC(=O)Nc1c(C)cccc1C [lidocaine] | slightly less efficiently | – | –
etanercept [EMBREL ®] | – | blocked the nucleus pulposus induced nerve injury efficiently | –
